Literature values as cited in patent publication US5846944A (priority 1997, dated 1998).
Like-named read-outs stand apart in the source and are kept apart here.

Tested on: hypercholesterolemic atherosclerosis, New Zealand White rabbits
Conditions: cited from earlier work

Molecule	reduction of hypercholesterolemic atherosclerosis (Probucol 0.5% in the diet (equivalent to 250 mg/Kg), 0.5% cholesterol diet)	total cholesterol in the bloodstream (Probucol 0.5% in the diet, 0.5% cholesterol diet)	effect on reducing atherosclerosis (Probucol, depending upon the extent of the hypercholesterolemia)	reduction of hypercholesterolemic atherosclerosis (Vitamin E 40 mg/kg, rabbits)	total blood cholesterol (Vitamin E 40 mg/kg, rabbits)
CC(C)(Sc1cc(C(C)(C)C)c(O)c(C(C)(C)C)c1)Sc1cc(C(C)(C)C)c(O)c(C(C)(C)C)c1 [Probucol]	up to 43%	did not reduce the total cholesterol	15-45%	–	–
Vitamin E	–	–	–	up to 73%	without reducing the total blood cholesterol
